Laboratory results from US9029377B2, “Platelet-activating factor receptor antagonists” (Merck Sharp & Dohme Corp., priority 2009, dated 2015).

Molecular target: PAFR (Homo sapiens, UniProt P25105)
Assay: PAF Binding Assay (PAFR binding)

Chain of PAFR (P25105 whole entry): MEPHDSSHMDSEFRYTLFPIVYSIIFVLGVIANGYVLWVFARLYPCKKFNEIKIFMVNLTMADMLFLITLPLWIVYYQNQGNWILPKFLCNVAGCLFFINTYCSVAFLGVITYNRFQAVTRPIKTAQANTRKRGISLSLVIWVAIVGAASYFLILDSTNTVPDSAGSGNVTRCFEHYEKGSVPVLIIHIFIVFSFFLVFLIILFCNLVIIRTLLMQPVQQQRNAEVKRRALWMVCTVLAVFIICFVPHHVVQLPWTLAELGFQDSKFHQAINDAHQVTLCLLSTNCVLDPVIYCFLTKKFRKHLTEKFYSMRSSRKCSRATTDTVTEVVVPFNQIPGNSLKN

SMILES | IC50 [nM]
O=S(=O)(N[C@H]1CCC[C@@H](n2cnnc2)C1)c1cc(Cl)cc(Cl)c1 [2 Mh, 3,5-dichloro-N-[(1S,3R)-3-(4H-1,2,4-triazol-4-yl)cyclohexyl]benzenesulfonamide] | 194
CCCCOc1ccc(S(=O)(=O)N[C@@H]2C[C@H](n3cnnc3C)CC(F)(F)C2)cc1F [Compound 2Hj, 4-butoxy-N-[(1R,5S)-3,3-difluoro-5-(3-methyl-4H-1,2,4-triazol-4-yl)cyclohexyl]-3-fluorobenzenesulfonamide] | 3.6
Cc1nncn1[C@@H]1CCC[C@H](NS(=O)(=O)c2ccc(-c3cnc(Cl)c(F)c3)c(F)c2)C1 [Compound 2Fg, 4-(6-chloro-5-fluoropyridin-3-yl)-3-fluoro-N-[(1S,3R)-3-(3-methyl-4H-1,2,4-triazol-4-yl)cyclohexyl]benzenesulfonamide] | 36
O=S(=O)(N[C@H]1CCC[C@@H](n2cnnc2)C1)c1ccc(-c2noc(C3CC3)n2)cc1 [Compound 2Ml, 4-(5-cyclopropyl-1,2,4-oxadiazol-3-yl)-N-[(1S,3R)-3-(4H-1,2,4-triazol-4-yl)cyclohexyl]benzenesulfonamide] | 243
CCCCCc1ccc(S(=O)(=O)N[C@H]2CCC[C@@H](n3cnnc3)C2)cc1 [Compound 2Mah, 4-pentyl-N-[(1S,3R)-3-(4H-1,2,4-triazol-4-yl)cyclohexyl]benzenesulfonamide] | 13
O=S(=O)(N[C@H]1CCC[C@@H](n2cnnc2)C1)c1cccc(OC(F)F)c1 [Compound 2Md, 3-(difluoromethoxy)-N-[(1S,3R)-3-(4H-1,2,4-triazol-4-yl)cyclohexyl]benzenesulfonamide] | 323
CCc1cc(-c2ccc(OC(F)(F)F)c(F)c2)ccc1S(=O)(=O)N[C@H]1CCC[C@@H](n2cnnc2)C1 [Compound 2Aac, 3-ethyl-3′-fluoro-N-[(1S,3R)-3-(4H-1,2,4-triazol-4-yl)cyclohexyl]-4′-(trifluoromethoxy)biphenyl-4-sulfonamide] | 13
O=S(=O)(N[C@H]1CCC[C@@H](n2cnnc2)C1)c1cc(-c2cccnc2O)cc(C(F)(F)F)c1 [Compound 3Aj, 3-(2-hydroxypyridin-3-yl)-N-[(1S,3R)-3-(4H-1,2,4-triazol-4-yl)cyclohexyl]-5-(trifluoromethyl)benzenesulfonamide] | 12
Cc1nncn1[C@@H]1CCC[C@H](NS(=O)(=O)c2ccc(OCCCC(F)(F)F)cc2)C1 [Compound 2Nac, N-[(1S,3R)-3-(3-methyl-4H-1,2,4-triazol-4-yl)cyclohexyl]-4-(4,4,4-trifluorobutoxy)benzenesulfonamide] | 4.7
CCCCOc1cc(F)c(S(=O)(=O)N[C@H]2CCC[C@@H](n3cnnc3C)C2)cc1F [Compound 2Nae, 4-butoxy-2,5-difluoro-N-[(1S,3R)-3-(3-methyl-4H-1,2,4-triazol-4-yl)cyclohexyl]benzenesulfonamide] | 5.4
O=S(=O)(N[C@H]1CCC[C@@H](n2cnnc2)C1)c1cccc(OC(F)(F)F)c1 [Compound 2Mc, N-[(1S,3R)-3-(4H-1,2,4-triazol-4-yl)cyclohexyl]-3-(trifluoromethoxy)benzenesulfonamide] | 410
O=S(=O)(N[C@H]1CCC[C@@H](n2cnnc2)C1)c1cc(-c2ccncc2)cc(C(F)(F)F)c1 [Compound 3An, 3-pyridin-4-yl-N-[(1S,3R)-3-(4H-1,2,4-triazol-4-yl)cyclohexyl]-5-(trifluoromethyl)benzenesulfonamide] | 36
O=S(=O)(N[C@H]1CCC[C@@H](n2cnnc2)C1)c1cc(-c2cccnc2)cc(C(F)(F)F)c1 [Compound 3Ar, 3-pyridin-3-yl-N-[(1S,3R)-3-(4H-1,2,4-triazol-4-yl)cyclohexyl]-5-(trifluoromethyl)benzenesulfonamide] | 32
CCc1cc(-c2ccnnc2)cc(S(=O)(=O)N[C@H]2CCC[C@@H](n3cnnc3)C2)c1 [Compound 3Baz, 3-ethyl-5-pyridazin-4-yl-N-[(1S,3R)-3-(4H-1,2,4-triazol-4-yl)cyclohexyl]benzenesulfonamide] | 208
Cc1nncn1[C@@H]1CCC[C@H](NS(=O)(=O)c2ccc(-c3noc(C4CC4)n3)cc2F)C1 [Compound 2Ja, 4-(5-cyclopropyl-1,2,4-oxadiazol-3-yl)-2-fluoro-N-[(1S,3R)-3-(3-methyl-4H-1,2,4-triazol-4-yl)cyclohexyl]benzenesulfonamide] | 22
COc1ccc(S(=O)(=O)N[C@H]2CCC[C@@H](n3cnnc3)C2)cc1OC [Compound 2Mx, 3,4-dimethoxy-N-[(1S,3R)-3-(4H-1,2,4-triazol-4-yl)cyclohexyl]benzenesulfonamide] | 600
CCc1cc(-c2ccc(F)cc2)ccc1S(=O)(=O)N[C@H]1CCC[C@@H](n2cnnc2)C1 [Compound 2An, 3-ethyl-4′-fluoro-N-[(1S,3R)-3-(4H-1,2,4-triazol-4-yl)cyclohexyl]benzenesulfonamide] | 17
CCc1cc(-c2cnc3ccnn3c2)ccc1S(=O)(=O)N[C@H]1CCC[C@@H](n2cnnc2)C1 [Compound 2Aau, 2-ethyl-4-pyrazolo[1,5-a]pyrimidin-6-yl-N-[(1S,3R)-3-(4H-1,2,4-triazol-4-yl)cyclohexyl]benzenesulfonamide] | 244
O=S(=O)(N[C@H]1CCC[C@@H](n2cnnc2)C1)c1cc(F)cc(F)c1 [Compound 2Ma, 3,5-difluoro-N-[(1S,3R)-3-(4H-1,2,4-triazol-4-yl)cyclohexyl]benzenesulfonamide] | 2900
CCc1cc(-c2cncc(OC)c2)ccc1S(=O)(=O)N[C@H]1CCC[C@@H](n2cnnc2)C1 [Compound 2Aan, 2-ethyl-4-(5-methoxypyridin-3-yl)-N-[(1S,3R)-3-(4H-1,2,4-triazol-4-yl)cyclohexyl]benzenesulfonamide] | 71
CCCCOc1ccc(S(=O)(=O)N[C@H]2CCC[C@@H](n3cnnc3C)C2)cc1 [Compound 2Nw, 4-butoxy-N-[(1S,3R)-3-(3-methyl-4H-1,2,4-triazol-4-yl)cyclohexyl]benzenesulfonamide] | 2.8
O=S(=O)(N[C@H]1CCC[C@@H](n2cnnc2)C1)c1ccc(-c2ccc(OC(F)(F)F)cc2)cc1F [Compound 2Ig, 3-fluoro-N-[(1S,3R)-3-(4H-1,2,4-triazol-4-yl)cyclohexyl]-4′-(trifluoromethoxy)biphenyl-4-sulfonamide] | 16
CCc1cc(OCCCC(F)(F)F)ccc1S(=O)(=O)N[C@H]1CCC[C@@H](n2cnnc2)C1 [Compound 2Abi, 2-ethyl-N-[(1S,3R)-3-(4H-1,2,4-triazol-4-yl)cyclohexyl]-4-(4,4,4-trifluorobutoxy)benzenesulfonamide] | 2.7
CCc1cc(-c2cnc(N)nc2)ccc1S(=O)(=O)N[C@H]1CCC[C@@H](n2cnnc2)C1 [Compound 2Aj, 4-(2-aminopyrimidin-5-yl)-2-ethyl-N-[(1S,3R)-3-(4H-1,2,4-triazol-4-yl)cyclohexyl]benzenesulfonamide] | 1060

Now from value to compound:

IC50 [nM] | SMILES
1.2 | O=S(=O)(N[C@H]1CCC[C@@H](n2cnnc2)C1)c1cc(-c2cc3ccccc3s2)cc(C(F)(F)F)c1 [Compound 3Aaf, 3-(1-benzothien-2-yl)-N-[(1S,3R)-3-(4H-1,2,4-triazol-4-yl)cyclohexyl]-5-(trifluoromethyl)benzenesulfonamide]
3.8 | Cc1nncn1[C@@H]1CCC[C@H](NS(=O)(=O)c2ccc(-c3noc(C4CCCC4)n3)cc2OC(F)(F)F)C1 [Compound 2Bbh, 4-(5-cyclopentyl-1,2,4-oxadiazol-3-yl)-N-[(1S,3R)-3-(3-methyl-4H-1,2,4-triazol-4-yl)cyclohexyl]-2-(trifluoromethoxy)benzenesulfonamide]
9 | COc1ncccc1-c1cc(F)cc(S(=O)(=O)N[C@H]2CCC[C@@H](n3cnnc3)C2)c1 [Compound 3Fb, 3-fluoro-5-(2-methoxypyridin-3-yl)-N-[(1S,3R)-3-(4H-1,2,4-triazol-4-yl)cyclohexyl]benzenesulfonamide]
4 | O=S(=O)(N[C@H]1CCC[C@@H](n2cnnc2)C1)c1ccc(-c2ccc(OCC(F)(F)F)nc2)cc1F [Compound 2Ih, 2-fluoro-N-[(1S,3R)-3-(4H-1,2,4-triazol-4-yl)cyclohexyl]-4-[6-(2,2,2-trifluoroethoxy)pyridin-3-yl]benzenesulfonamide]
9.9 | CC(F)(F)c1nc(-c2ccc(S(=O)(=O)N[C@H]3CCC[C@@H](n4cnnc4)C3)c(C3CC3)c2)no1 [Compound 2Kc, 2-cyclopropyl-4-[5-(1,1-difluoroethyl)-1,2,4-oxadiazol-3-yl]-N-[(1S,3R)-3-(4H-1,2,4-triazol-4-yl)cyclohexyl]benzenesulfonamide]
10 | Cc1nncn1[C@@H]1CCC[C@H](NS(=O)(=O)c2ccc(-c3ccc(OC(F)(F)F)cc3)cc2F)C1 [Compound 2Jg, 3-fluoro-N-[(1S,3R)-3-(3-methyl-4H-1,2,4-triazol-4-yl)cyclohexyl]-4′-(trifluoromethoxy)biphenyl-4-sulfonamide]
10 | O=S(=O)(N[C@H]1CCC[C@@H](n2cnnc2)C1)c1cc(-c2cccc3cnccc23)cc(C(F)(F)F)c1 [Compound 3Az, 3-isoquinolin-5-yl-N-[(1S,3R)-3-(4H-1,2,4-triazol-4-yl)cyclohexyl]-5-(trifluoromethyl)benzenesulfonamide]
2.6 | O=S(=O)(N[C@H]1CCC[C@@H](n2cnnc2)C1)c1ccc(-c2ccc(OC(F)F)cc2)c(F)c1 [Compound 2Ec, 4′-(difluoromethoxy)-2-fluoro-N-[(1S,3R)-3-(4H-1,2,4-triazol-4-yl)cyclohexyl]biphenyl-4-sulfonamide]
9.8 | Cc1nnc(C)n1[C@@H]1CCC[C@H](NS(=O)(=O)c2c(C(C)C)cc(C(C)C)cc2C(C)C)C1 [Compound 7d, N-[(1S,3R)-3-(3,5-dimethyl-4H-1,2,4-triazol-4-yl)cyclohexyl]-2,4,6-triisopropylbenzenesulfonamide]
2.8 | O=S(=O)(N[C@H]1CCC[C@@H](n2cnnc2)C1)c1ccc(-c2noc(C3CCC3)n2)cc1C1CC1 [Compound 2Kf, 4-(5-cyclobutyl-1,2,4-oxadiazol-3-yl)-2-cyclopropyl-N-[(1S,3R)-3-(4H-1,2,4-triazol-4-yl)cyclohexyl]benzenesulfonamide]
9.7 | CCc1cc(-c2ccn3nccc3n2)ccc1S(=O)(=O)N[C@H]1CCC[C@@H](n2cnnc2)C1 [Compound 2Aav, 2-ethyl-4-pyrazolo[1,5-a]pyrimidin-5-yl-N-[(1S,3R)-3-(4H-1,2,4-triazol-4-yl)cyclohexyl]benzenesulfonamide]
